Data: the supplement of paper PMC8372320

Experiment: photocatalytic hydrogen evolution rate (per 5 mg catalyst); higher = more photocatalytic H2 evolution; extreme values may be limits of the assay
Details: catalyst mass (mg): 5; Pt cocatalyst (wt%): 3; sacrificial medium: triethylamine/methanol/water 1:1:1
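Note: aromatic molecules in triethylamine/methanol/water with Pt photoreduced in situ, irradiated 3 h under a 1 sun AM 1.5G solar simulator (350–1000 nm), H2 quantified by headspace gas chromatography; listed molecule itself used as the photocatalyst at 5 mg per vial.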

| photocatalytic hydrogen evolution rate [µmol/h] | Compound |
| --- | --- |
| 0 | N#Cc1cccc(F)c1F |
| 0.855 | OCCCCc1ccc2ccc3cccc4ccc1c2c34 |
| 0 | c1ccc(Nc2ccccc2)cc1 |
| 0 | Brc1cnc(Br)c2nsnc12 |
| 0 | CCN(CCO)c1ccc(N=Nc2ccc([N+](=O)[O-])cc2)cc1 |
| 0 | c1ccc2nsnc2c1 |
| 6.77 | O=C(c1ccc(Br)cc1)c1ccc(Br)cc1 |
| 1.6 | N#Cc1c(-n2c3ccccc3c3ccccc32)c(-n2c3ccccc3c3ccccc32)c(C#N)c(-n2c3ccccc3c3ccccc32)c1-n1c2ccccc2c2ccccc21 |
| 0 | COC(=O)/C=C/c1ccccc1 |
| 0.122 | Clc1ccc2ccc(Cl)nc2n1 |
| 0 | N#CCC(=O)c1ccc2c(c1)CCCC2 |
| 0.383 | Brc1cc(Br)c2ccc3c(Br)cc(Br)c4ccc1c2c43 |
| 12.3 | COc1cc(Br)ccc1C=O |
| 0 | CC(Oc1ccc(Br)cc1Br)C(=O)NN (stereo unspecified) |
| 0 | Brc1ccc2c(c1)Cc1cc(Br)ccc1-2 |
| 0 | Nc1ccc(-c2ccc(N)c(F)c2)cc1F |
| 0 | C=Cc1ccc2c(=C(C#N)C#N)c3ccccc3c(=C(C#N)C#N)c2c1 |
| 0 | O=C(O)C(c1ccccc1)(c1ccccc1)c1ccccc1 |
| 0 | c1cn[nH]c1 |
| 0 | C=CS(=O)(=O)c1ccccc1 |
| 0 | O=Cc1ccc(N(c2ccccc2)c2ccc(-c3ccc(N(c4ccccc4)c4ccc(C=O)cc4)cc3)cc2)cc1 |
| 0 | O=C(O)C1CCN(C(=O)c2ccccc2)CC1 |
| 0.0132 | CC1(C)c2ccccc2Oc2ccccc21 |
| 0 | Ic1ccc(I)cc1 |
| 0.0435 | CC(C)(C)c1ccc(C(=O)CC#N)cc1 |
| 0 | N#CC(C#N)=C1CC(=C(C#N)C#N)c2ccccc21 |

| photocatalytic hydrogen evolution rate [µmol/h] | Compound |
| --- | --- |
| 0 | C#Cc1cnc[nH]1 |
| 0 | N#Cc1ccnc(C#N)c1 |
| 0 | Brc1ccc(I)cc1 |
| 0.006 | Nc1ccc2c(c1)C(=O)c1ccc(N)cc1C2=O |
| 0.00242 | OCc1cccc2cc3cccc(CO)c3cc12 |
| 0 | Cc1c(CBr)c(C)c(CBr)c(C)c1CBr |
| 0 | Brc1ccc(-c2ccc(Br)cc2)cc1 |
| 0.128 | Brc1cc(Br)c2[nH]c3c(Br)cc(Br)cc3c2c1 |
| 0 | N#Cc1cc(N)c(N)cc1C#N |
| 0 | COC(=O)c1cc(C(=O)OC)c(C(=O)OC)cc1C(=O)OC |
| 0 | Brc1cccc2cc3cccc(Br)c3cc12 |
| 0 | O=Cc1cccc(O)c1 |
| 0 | O=C1C(Br)=C(Br)C(=O)C(Br)=C1Br |
| 0 | N#Cc1ncccc1Br |
| 0.0539 | c1ccc(-c2c3ccccc3c(-c3ccccc3)c3c(-c4ccccc4)c4ccccc4c(-c4ccccc4)c23)cc1 |
| 0 | O=C1C(=O)c2cccnc2-c2ncccc21 |
| 0 | OB(O)c1cccc(B(O)O)c1 |
| 0 | N#Cc1cc(F)cc(C#N)c1 |
| 0 | O=C1c2ccccc2C(=O)C1(O)O |
| 0 | COc1ccc(B(O)O)cc1 |
| 0 | N#Cc1ccc(Br)cc1F |
| 0 | c1cc(-c2cn[nH]c2)ccc1-c1cn[nH]c1 |
| 0 | Brc1ccnc(-c2cc(Br)ccn2)c1 |
| 0 | Brc1nnc(Br)s1 |
| 0 | CC(C)(C)c1ccc(Nc2ccc(Nc3ccc(C(C)(C)C)cc3)c3c2C(=O)c2c(O)ccc(O)c2C3=O)cc1 |
| 0 | Nc1c(F)c(F)c(-c2c(F)c(F)c(N)c(F)c2F)c(F)c1F |

| photocatalytic hydrogen evolution rate [µmol/h] | Compound |
| --- | --- |
| 0 | Nc1ccc2ccc3cccc4ccc1c2c34 |
| 1.65 | N#Cc1c(-n2c3ccccc3c3ccccc32)c(-n2c3ccccc3c3ccccc32)cc(-n2c3ccccc3c3ccccc32)c1-n1c2ccccc2c2ccccc21 |
| 0 | Cc1c(O)cccc1O |
| 0.055 | Cc1cc(N)ccc1-c1ccc(N)cc1C |
| 0.146 | O=C(/C=C/c1ccccc1)c1ccccc1 |
| 0 | O=C(O)c1cc(Br)c(C(=O)O)cc1Br |
| 4.22 | N#CCc1ccc(C=O)cc1 |
| 0 | O=C(n1ccnc1)n1ccnc1 |
| 0.0941 | O=C1OC(=O)c2ccc3c4c(ccc1c24)C(=O)OC3=O |
| 0 | CC(C)c1cc(C(C)C)c(-c2ccccc2P(C(C)(C)C)C(C)(C)C)c(C(C)C)c1 |
| 0.074 | Cc1ccc(Nc2ccc(C)cc2)cc1 |
| 0 | Brc1ccc2cc(Br)ccc2c1 |
| 0.0133 | CC1(C)OB(c2ccc3c4ccc(B5OC(C)(C)C(C)(C)O5)cc4n(-c4ccccc4)c3c2)OC1(C)C |
| 0 | O=Cc1cc(O)c(O)c(O)c1 |
| 0.000715 | N#Cc1cc(N)cc(Cl)c1 |
| 2.06 | O=Cc1c2ccccc2cc2ccccc12 |
| 0 | Cn1cc(Br)nc(Br)c1=O |
| 0 | N#Cc1cc(N)ccc1Cl |
| 0 | N#Cc1cc(F)c(F)c(F)c1F |
| 23.9 | O=C1OC2(c3ccccc31)c1cc(Br)c(O)c(Br)c1Oc1c2cc(Br)c(O)c1Br |
| 0.236 | CC(C)(C)c1ccnc(-c2cc(C(C)(C)C)ccn2)c1 |
| 0.00783 | O=Cc1ccc(O)cc1 |
| 0.0357 | COC(=O)c1ccc(-c2ccc(Br)cc2)cc1 |
| 0.655 | Brc1cnc2c(ccc3cc(Br)cnc32)c1 |
| 0 | C#Cc1ccc(C(=O)O)cc1 |
| 0 | O=[N+]([O-])c1cc(Br)ccc1Br |

| photocatalytic hydrogen evolution rate [µmol/h] | Compound |
| --- | --- |
| 0 | Cc1ccc(C#N)cc1N |
| 0 | CC(=O)c1c(O)cccc1O |
| 0 | c1ccc2ccccc2c1 |
| 2.45 | CCn1c2ccccc2c2cc(C=O)ccc21 |
| 0 | O=Cc1cc(O)cc(F)c1 |
| 0 | COC(=O)c1nc(N)c(Br)cc1Br |
| 0 | Oc1ccc2cc(Br)ccc2c1-c1c(O)ccc2cc(Br)ccc12 |
| 1.6 | O=Cc1ccc(-c2ccc(-c3ccc(C=O)s3)s2)s1 |
| 0 | NC(=O)c1ccc(B(O)O)cc1 |
| 0 | Cc1ccc(C)c(N=Nc2cc(C)c(N=Nc3c(O)ccc4ccccc34)cc2C)c1 |
| 0 | Fc1c(Br)cccc1Br |
| 0.0455 | Fc1c(F)c(F)c(B(c2c(F)c(F)c(F)c(F)c2F)c2c(F)c(F)c(F)c(F)c2F)c(F)c1F |
| 7.62 | Cc1cc(C=O)c(O)c(C=O)c1 |
| 2.63 | Fc1c(F)c(Br)c2nsnc2c1Br |
| 0.103 | c1ccc(-c2ccc(-c3nc(-c4ccc(-c5ccccc5)cc4)nc(-c4ccc(-c5ccccc5)cc4)n3)cc2)cc1 |
| 0 | O=C(c1ccc(O)cc1)c1ccc(O)cc1 |
| 0.317 | O=Cc1ccc(N(c2ccccc2)c2ccccc2)cc1 |
| 0 | O=C(O)[C@@H]1CCC(=O)N1C(=O)OCc1ccccc1 |
| 0 | Nc1cc(Br)ccc1Br |
| 1.65 | O=Cc1cccc(C=O)c1 |
| 0.0142 | CC1(C)c2cc(B3OC(C)(C)C(C)(C)O3)ccc2-c2ccc(B3OC(C)(C)C(C)(C)O3)cc21 |
| 1.99 | N#Cc1cc(Br)c[nH]c1=O |
| 0.00675 | Brc1ncc(Br)n2ccnc12 |
| 0.0826 | N#Cc1ccc(-c2ccc(N)nc2)cc1 |
| 0.16 | Brc1ccc2ccc3c(Br)ccc4ccc1c2c43 |
| 0 | O=c1cccc[nH]1 |

| Compound | photocatalytic hydrogen evolution rate [µmol/h] |
| --- | --- |
| N#Cc1c2ccccc2cc2ccccc12 | 0.294 |
| Brc1ccc2[nH]c3ccc(Br)cc3c2c1 | 0 |
| O=Cc1ccc(-c2ccccc2)cc1 | 4.67 |
| c1csc(-c2ccc(-c3cccs3)s2)c1 | 0 |
| Nc1cccc2ccccc12 | 0 |
| O=Cc1ccc2c(c1)c1ccccc1n2Cc1ccccc1 | 2.52 |
| O=C1C=C(Br)C(=O)C=C1Br | 0 |
| Nc1nc(N)nc(N)n1 | 0 |
| O=C1C(F)=C(F)C(=O)C(F)=C1F | 0 |
| O=Cc1ccc2ccc3cccc4ccc1c2c34 | 10.3 |
| O=S1(=O)c2ccccc2-c2ccccc21 | 0.222 |
| O=[N+]([O-])c1ccc(C(=C(c2ccc([N+](=O)[O-])cc2)c2ccc([N+](=O)[O-])cc2)c2ccc([N+](=O)[O-])cc2)cc1 | 0 |
| c1ccc(Nc2ccc(Nc3ccccc3)cc2)cc1 | 0 |
| Nc1ccccc1C(=O)O | 0.00138 |
| O=Cc1cc(Br)cc(Br)c1 | 0.234 |
| N#Cc1cc(C#N)c(C#N)cc1C#N | 0 |
| Oc1c(Br)cc(Br)cc1Br | 0.0139 |
